Data taken from patent US10517889B2, “Modulators of SMAD7 expression” (Ionis Pharmaceuticals, Inc., priority 2017, dated 2019).
Several values for one entry are separate records, joined by “and”; a condition that tells them apart may be missing. Equal entries are not always repeated. Strand notation (5' to 3'): a small letter for the sugar, then the base; units joined by * are phosphorothioate-linked, units joined directly phosphodiester-linked; [ ] holds rarer units or linkages, { } end groups; capitals alone tell only the bases. k = constrained ethyl (cEt); [5mC] = 5-methylcytosine; d = 2'-deoxy (DNA)

Tested on: human SMAD7 mRNA
Experiment: Antisense inhibition of human SMAD7 mRNA expression in Hep3B cells by 3-10-3 cEt gapmers, 10,000 nM, electroporation (Example 2)
Assay type: cell-based
Conditions: Hep3B cells, electroporation with 10,000 nM antisense oligonucleotide, approximately 24 hours, primer probe set RTS5062, relative to untreated control cells
Outline: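 qRT-PCR (RTS5062) of SMAD7 mRNA, normalised to RIBOGREEN total RNA, gave percent inhibition relative to untreated controls. Hep3B cells at 20,000 per well received 10,000 nM oligonucleotide by electroporation, with ~24 h treatment.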

Substance | % Inhibition [%] | % inhibition of SMAD7 mRNA expression
799041 (kG*kG*k[5mC]*dA*dG*d[5mC]*dT*dG*d[5mC]*dT*dG*dG*dG*kA*k[5mC]*k[5mC]; antisense) [compound 799041] | 22 | 
799042 (kT*kG*k[5mC]*dT*d[5mC]*d[5mC]*dT*dG*dG*d[5mC]*dA*dG*d[5mC]*kT*kG*k[5mC]; antisense) [compound 799042] | 33 | 
799043 (kA*kG*k[5mC]*d[5mC]*dG*dT*dG*d[5mC]*dT*d[5mC]*d[5mC]*dT*dG*kG*k[5mC]*kA; antisense) [compound 799043] |  | 0% and 10%
799044 (k[5mC]*kA*kG*dA*dG*d[5mC]*d[5mC]*dG*dT*dG*d[5mC]*dT*d[5mC]*k[5mC]*kT*kG; antisense) [compound 799044] |  | 0%
799045 (kG*kG*kA*d[5mC]*dA*dG*dA*dG*d[5mC]*d[5mC]*dG*dT*dG*k[5mC]*kT*k[5mC]; antisense) [compound 799045] |  | 37%
799046 (antisense kG*kG*k[5mC]*dT*dT*dT*d[5mC]*d[5mC]*d[5mC]*dA*dG*dG*d[5mC]*kT*kG*kG) [compound 799046] |  | 0%
799047 (antisense kT*kT*kG*dA*dT*dG*dA*dG*dG*dG*dA*dG*dA*kG*kG*kA) [compound 799047] |  | 63%
799048 (antisense kT*k[5mC]*k[5mC]*dT*dT*dG*dA*dT*dG*dA*dG*dG*dG*kA*kG*kA) [compound 799048] |  | 60%
799049 (antisense kG*k[5mC]*k[5mC]*d[5mC]*dG*dT*dG*dT*d[5mC]*d[5mC]*dT*dT*dG*kA*kT*kG) [compound 799049] |  | 44%
799050 (antisense kA*k[5mC]*kA*dG*dG*d[5mC]*d[5mC]*d[5mC]*dG*dT*dG*dT*d[5mC]*k[5mC]*kT*kT) [compound 799050] |  | 36%
799051 (antisense kT*kG*kG*dA*d[5mC]*dA*dG*dG*d[5mC]*d[5mC]*d[5mC]*dG*dT*kG*kT*k[5mC]) [compound 799051] |  | 32%
799052 (antisense k[5mC]*kT*kG*dT*dG*dG*dA*d[5mC]*dA*dG*dG*d[5mC]*d[5mC]*k[5mC]*kG*kT) [compound 799052] |  | 40%
799053 (antisense kA*kG*k[5mC]*d[5mC]*dT*dG*dT*dG*dG*dA*d[5mC]*dA*dG*kG*k[5mC]*k[5mC]) [compound 799053] | 0 | 
799054 (antisense k[5mC]*kA*kG*dA*dA*dG*d[5mC]*d[5mC]*dT*dG*dT*dG*dG*kA*k[5mC]*kA) [compound 799054] | 15 | 
799055 (antisense kG*k[5mC]*kT*d[5mC]*dA*dG*dA*dA*dG*d[5mC]*d[5mC]*dT*dG*kT*kG*kG) [compound 799055] | 19 | 
799056 (antisense k[5mC]*kG*k[5mC]*dT*dG*d[5mC]*dT*d[5mC]*dA*dG*dA*dA*dG*k[5mC]*k[5mC]*kT) [compound 799056] | 28 | 
799057 (antisense kG*kG*k[5mC]*dT*d[5mC]*dG*d[5mC]*dT*dG*d[5mC]*dT*d[5mC]*dA*kG*kA*kA) [compound 799057] | 0 | 
799058 (antisense kA*kG*k[5mC]*dA*dG*dG*d[5mC]*dT*d[5mC]*dG*d[5mC]*dT*dG*k[5mC]*kT*k[5mC]) [compound 799058] | 0 | 
799059 (antisense kA*k[5mC]*kT*dA*dG*d[5mC]*dA*dG*dG*d[5mC]*dT*d[5mC]*dG*k[5mC]*kT*kG) [compound 799059] | 18 | 
799060 (antisense kG*k[5mC]*k[5mC]*dA*d[5mC]*dT*dA*dG*d[5mC]*dA*dG*dG*d[5mC]*kT*k[5mC]*kG) [compound 799060] | 37 | 
799061 (antisense kT*kT*k[5mC]*dG*dG*d[5mC]*d[5mC]*dA*d[5mC]*dT*dA*dG*d[5mC]*kA*kG*kG) [compound 799061] | 45 | 
799062 (antisense k[5mC]*kT*kG*dG*dT*dT*d[5mC]*dG*dG*d[5mC]*d[5mC]*dA*d[5mC]*kT*kA*kG) [compound 799062] | 45 | 
799063 (antisense kT*kG*kG*dT*dT*d[5mC]*dT*dG*dG*dT*dT*d[5mC]*dG*kG*k[5mC]*k[5mC]) [compound 799063] |  | 9%
799064 (antisense kT*kA*kA*dT*dT*dG*dG*dT*dT*d[5mC]*dT*dG*dG*kT*kT*k[5mC]) [compound 799064] |  | 47%
799065 (antisense kA*kA*kA*dT*dA*dA*dT*dT*dG*dG*dT*dT*d[5mC]*kT*kG*kG) [compound 799065] |  | 35%
799066 (antisense kT*kG*kA*dA*dA*dA*dT*dA*dA*dT*dT*dG*dG*kT*kT*k[5mC]) [compound 799066] |  | 0%
799068 (antisense kG*kA*k[5mC]*dA*dA*dG*dG*dA*dT*dG*dA*dA*dA*kA*kT*kA) [compound 799068] |  | 49%

Substance | % Inhibition [%] | % inhibition of SMAD7 mRNA expression
799069 (antisense kA*kT*kA*dA*dG*dA*d[5mC]*dA*dA*dG*dG*dA*dT*kG*kA*kA) [compound 799069] |  | 18%
799071 (antisense kG*kG*kA*dA*dG*dG*dG*dA*dA*dT*dA*dA*dG*kA*k[5mC]*kA) [compound 799071] |  | 44%
799072 (antisense kG*k[5mC]*kA*dG*dG*dA*dA*dG*dG*dG*dA*dA*dT*kA*kA*kG) [compound 799072] |  | 55%
799073 (antisense k[5mC]*kG*k[5mC]*dT*dA*d[5mC]*dA*dA*dT*dG*dG*d[5mC]*dA*kG*kG*kG) [compound 799073] | 34 | 
799074 (antisense k[5mC]*kA*kA*dA*dA*dA*dA*dG*dA*dA*dA*dG*dA*k[5mC]*kG*k[5mC]) [compound 799074] | 9 | 
799075 (antisense kA*kG*kA*dT*dG*dG*d[5mC]*d[5mC]*dA*dA*dA*dA*dA*kA*kG*kA) [compound 799075] | 0 | 
799076 (antisense kA*kG*k[5mC]*dA*dG*dA*dT*dG*dG*d[5mC]*d[5mC]*dA*dA*kA*kA*kA) [compound 799076] | 34 | 
799077 (antisense k[5mC]*kA*kG*dG*dA*dG*d[5mC]*dA*dG*dA*dT*dG*dG*k[5mC]*k[5mC]*kA) [compound 799077] | 28 | 
799078 (antisense kA*kT*k[5mC]*d[5mC]*dA*dG*dG*dA*dG*d[5mC]*dA*dG*dA*kT*kG*kG) [compound 799078] | 19 | 
799079 (antisense kG*kA*kG*dA*dT*d[5mC]*d[5mC]*dA*dG*dG*dA*dG*d[5mC]*kA*kG*kA) [compound 799079] | 46 | 
799080 (antisense kA*kG*kG*dG*dA*dG*dA*dT*d[5mC]*d[5mC]*dA*dG*dG*kA*kG*k[5mC]) [compound 799080] | 56 | 
799081 (antisense kT*k[5mC]*kT*d[5mC]*dA*dG*dG*dG*dA*dG*dA*dT*d[5mC]*k[5mC]*kA*kG) [compound 799081] | 28 | 
799082 (antisense kG*k[5mC]*k[5mC]*d[5mC]*dA*dT*d[5mC]*dT*d[5mC]*dA*dG*dG*dG*kA*kG*kA) [compound 799082] | 27 | 
799083 (antisense kG*kG*kA*dA*dG*d[5mC]*d[5mC]*d[5mC]*dA*dT*d[5mC]*dT*d[5mC]*kA*kG*kG) [compound 799083] |  | 0%
799084 (antisense k[5mC]*kT*kT*dG*dG*dG*dA*dA*dG*d[5mC]*d[5mC]*d[5mC]*dA*kT*k[5mC]*kT) [compound 799084] |  | 0%
799085 (antisense kG*k[5mC]*k[5mC]*d[5mC]*dT*dT*dG*dG*dG*dA*dA*dG*d[5mC]*k[5mC]*k[5mC]*kA) [compound 799085] |  | 10%
799086 (antisense kG*kG*k[5mC]*dA*dG*d[5mC]*d[5mC]*d[5mC]*dT*dT*dG*dG*dG*kA*kA*kG) [compound 799086] |  | 0%
799087 (antisense k[5mC]*k[5mC]*k[5mC]*d[5mC]*dG*dG*d[5mC]*dA*dG*d[5mC]*d[5mC]*d[5mC]*dT*kT*kG*kG) [compound 799087] |  | 69%
799088 (antisense kG*k[5mC]*kT*dG*d[5mC]*d[5mC]*d[5mC]*d[5mC]*dG*dG*d[5mC]*dA*dG*k[5mC]*k[5mC]*k[5mC]) [compound 799088] |  | 24%
799090 (antisense kG*kT*kG*dA*dG*d[5mC]*dA*dA*dT*dA*d[5mC]*dT*dG*kT*kG*kA) [compound 799090] |  | 49%
799091 (antisense kA*k[5mC]*kT*dG*dG*dG*dT*dG*dA*dG*d[5mC]*dA*dA*kT*kA*k[5mC]) [compound 799091] |  | 42%
799092 (antisense kG*kG*k[5mC]*dA*d[5mC]*dT*dG*dG*dG*dT*dG*dA*dG*k[5mC]*kA*kA) [compound 799092] |  | 30%
799093 (antisense kG*kT*k[5mC]*dA*d[5mC]*d[5mC]*dA*dG*dG*dG*d[5mC]*dA*dG*kG*k[5mC]*kA) [compound 799093] | 47 | 
799094 (antisense kT*kG*kA*dT*dG*dT*d[5mC]*dA*d[5mC]*d[5mC]*dA*dG*dG*kG*k[5mC]*kA) [compound 799094] | 57 | 
799095 (antisense kA*k[5mC]*k[5mC]*dT*dG*dA*dT*dG*dT*d[5mC]*dA*d[5mC]*d[5mC]*kA*kG*kG) [compound 799095] | 0 | 
799096 (antisense kA*kA*k[5mC]*d[5mC]*dT*dG*dA*dT*dG*dT*d[5mC]*dA*d[5mC]*k[5mC]*kA*kG) [compound 799096] | 30 | 
